Data taken from publication PMC7451048 (Drug metabolism letters, 2019).

How the values were obtained:
[1] = target: T1, OATP1B1 (Homo sapiens, UniProt Q9Y6L6)
T1 sequence (Q9Y6L6 1-691): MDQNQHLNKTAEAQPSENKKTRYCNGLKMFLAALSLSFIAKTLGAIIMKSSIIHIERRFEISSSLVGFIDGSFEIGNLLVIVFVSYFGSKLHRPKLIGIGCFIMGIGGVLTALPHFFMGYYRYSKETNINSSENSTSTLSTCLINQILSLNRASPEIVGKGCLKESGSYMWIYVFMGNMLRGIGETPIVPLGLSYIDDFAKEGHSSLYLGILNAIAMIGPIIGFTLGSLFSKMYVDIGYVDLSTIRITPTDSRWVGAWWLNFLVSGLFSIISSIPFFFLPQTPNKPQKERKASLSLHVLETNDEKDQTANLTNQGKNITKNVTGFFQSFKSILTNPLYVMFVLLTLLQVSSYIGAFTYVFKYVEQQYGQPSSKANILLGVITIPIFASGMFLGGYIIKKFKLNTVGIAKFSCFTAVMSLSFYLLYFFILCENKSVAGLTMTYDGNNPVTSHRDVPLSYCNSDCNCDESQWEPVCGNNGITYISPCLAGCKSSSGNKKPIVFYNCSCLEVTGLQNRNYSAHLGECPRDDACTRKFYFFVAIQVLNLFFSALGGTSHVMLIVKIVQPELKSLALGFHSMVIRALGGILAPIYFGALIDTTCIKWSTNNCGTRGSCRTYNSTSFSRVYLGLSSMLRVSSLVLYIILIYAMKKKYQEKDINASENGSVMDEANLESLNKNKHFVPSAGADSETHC

[2] = target: T2, OATP2B1 (Homo sapiens, UniProt O94956)
T2 sequence (O94956 1-709): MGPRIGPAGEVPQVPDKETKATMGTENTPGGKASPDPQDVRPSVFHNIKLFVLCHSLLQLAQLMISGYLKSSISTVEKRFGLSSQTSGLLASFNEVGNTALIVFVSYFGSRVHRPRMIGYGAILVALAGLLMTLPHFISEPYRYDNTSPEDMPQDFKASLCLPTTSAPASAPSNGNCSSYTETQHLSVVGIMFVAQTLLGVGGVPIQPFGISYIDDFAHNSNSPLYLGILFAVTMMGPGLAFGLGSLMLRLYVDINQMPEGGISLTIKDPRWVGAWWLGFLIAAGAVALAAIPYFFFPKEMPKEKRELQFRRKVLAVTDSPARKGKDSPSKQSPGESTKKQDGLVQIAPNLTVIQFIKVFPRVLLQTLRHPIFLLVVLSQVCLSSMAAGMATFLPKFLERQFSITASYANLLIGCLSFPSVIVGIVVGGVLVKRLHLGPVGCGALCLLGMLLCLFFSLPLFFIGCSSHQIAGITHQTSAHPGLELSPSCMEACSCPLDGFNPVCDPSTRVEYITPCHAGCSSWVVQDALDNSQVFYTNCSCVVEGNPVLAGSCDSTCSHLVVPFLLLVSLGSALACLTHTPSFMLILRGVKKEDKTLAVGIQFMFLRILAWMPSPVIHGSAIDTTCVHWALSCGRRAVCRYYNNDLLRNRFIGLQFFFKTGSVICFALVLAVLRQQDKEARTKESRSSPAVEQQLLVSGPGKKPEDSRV

[3] = target: T3, OATP1B3 (Homo sapiens, UniProt Q9NPD5); details: 3 min; for Inhibition of cellular uptake by RIF, OATP1B3-overexpressing cells: 20 μM RIF, BUP 5 μM, OHB 30 μM, TB 10 μM, EB 5 μM; for Apparent Vmax / Km: net cellular uptake, CHO/OATP1B3-overexpressing cells, mean ± SD; for Km: read-out: Apparent Km
T3 sequence (Q9NPD5 1-702): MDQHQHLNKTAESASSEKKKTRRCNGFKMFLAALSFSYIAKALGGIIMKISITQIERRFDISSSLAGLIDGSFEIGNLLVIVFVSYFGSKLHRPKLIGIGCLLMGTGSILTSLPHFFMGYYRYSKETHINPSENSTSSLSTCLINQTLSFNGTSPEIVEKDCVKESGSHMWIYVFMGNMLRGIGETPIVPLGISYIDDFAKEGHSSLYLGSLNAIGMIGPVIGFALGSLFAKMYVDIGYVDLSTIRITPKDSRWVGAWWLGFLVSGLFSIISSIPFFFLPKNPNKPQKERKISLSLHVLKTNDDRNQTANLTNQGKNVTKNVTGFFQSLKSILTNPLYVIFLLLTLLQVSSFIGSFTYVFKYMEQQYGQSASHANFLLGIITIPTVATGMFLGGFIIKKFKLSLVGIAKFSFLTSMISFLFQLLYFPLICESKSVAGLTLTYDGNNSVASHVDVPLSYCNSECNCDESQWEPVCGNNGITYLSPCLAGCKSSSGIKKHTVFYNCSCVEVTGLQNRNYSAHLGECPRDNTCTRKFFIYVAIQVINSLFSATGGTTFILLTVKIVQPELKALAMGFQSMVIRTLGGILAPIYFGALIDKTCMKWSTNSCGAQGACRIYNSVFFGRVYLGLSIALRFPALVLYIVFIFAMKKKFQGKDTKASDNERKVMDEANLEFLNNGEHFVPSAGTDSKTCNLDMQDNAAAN

[4] = target: T4, OCT1 (Homo sapiens, UniProt O15245); experiment: Cellular uptake assay, HEK/OCT1 vs HEK empty vector cells
T4 sequence (O15245 1-554): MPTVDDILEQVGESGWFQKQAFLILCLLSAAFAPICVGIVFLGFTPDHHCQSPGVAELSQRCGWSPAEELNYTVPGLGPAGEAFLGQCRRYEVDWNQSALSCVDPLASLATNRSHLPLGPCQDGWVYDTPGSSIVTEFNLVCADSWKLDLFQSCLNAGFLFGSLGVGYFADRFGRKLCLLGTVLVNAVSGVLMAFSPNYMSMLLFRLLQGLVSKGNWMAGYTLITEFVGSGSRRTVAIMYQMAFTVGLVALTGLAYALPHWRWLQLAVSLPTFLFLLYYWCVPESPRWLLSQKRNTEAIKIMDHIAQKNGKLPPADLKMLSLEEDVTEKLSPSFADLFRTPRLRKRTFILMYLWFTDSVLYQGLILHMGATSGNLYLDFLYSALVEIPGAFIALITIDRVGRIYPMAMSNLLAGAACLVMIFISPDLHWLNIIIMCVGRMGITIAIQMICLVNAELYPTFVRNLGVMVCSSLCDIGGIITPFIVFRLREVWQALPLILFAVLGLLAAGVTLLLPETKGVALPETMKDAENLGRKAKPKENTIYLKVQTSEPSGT

Structure (SMILES) | Substrate of OATP1B1 (conclusion) [1] | Substrate of OATP2B1 (conclusion) [2] | Inhibition of cellular uptake by RIF, OATP1B3-overexpressing cells [3] | Apparent Vmax [3] [pmol/mg protein/min] | Km [3] [µM] | Substrate of OCT1 (conclusion) [4]
CC(NC(C)(C)C)C(O)c1cccc(Cl)c1 (stereo not drawn) [EB, Erythrohydrobupropion] | not substrates | not substrates | no statistically significant differences | 1026±37 | 14 ± 2 | not substrates
C[C@H]1NC(C)(C)CO[C@]1(O)c1cccc(Cl)c1 [OHB, Hydroxybupropion] | not substrates | not substrates | no statistically significant differences | 1258±86 | 76 ± 14 | not substrates
C[C@H](NC(C)(C)C)[C@@H](O)c1cccc(Cl)c1 [TB, Threohydrobupropion] | not substrates | not substrates | no statistically significant differences | 2536±97 | 21 ± 3 | not substrates
